Columns and labels:
[1] = system: Eleven patient-derived tumor organoids; experiment: 3D clonogenic assay, summary over the organoid panel; type: cell-based, human; conditions: for median percent colony reduction relative to DMSO: 11 organoid cultures
Procedure: (§1) Five tumor cell lines (4T1.2, A549, EMT6, NCI-H460, and HT29) were treated with a range of paclitaxel or 5-FU concentrations in the presence of dimethlylsulfoxide (DMSO), 5 μM Compound 1, or 20 μM Compound 1. Cells were imaged 4 days after treatment and percent confluence was assessed by image quantification. EC50 values for cell confluence were used to assess chemotherapy potency. Eleven patient-derived tumor organoids (MAXFTN449, MAXFTN2990, PAXF1657, PAXF2131, CXF1256, CXF2129, CXF2061, LXFE2478, LXFE690, LXFA677, LXFA644) were seeded in a 3D matrix and treated with a range of paclitaxel, 5-FU, SN38, Gemcitabine, oxaliplatin, and carboplatin concentrations in the presence of DMSO, 5 μM Compound 1, or 20 μM Compound 1. After 8 to 13 days in culture, colonies were stained, imaged, and counted. A dose response curve was generated for chemotherapy alone or chemotherapy in combination with 5 or 20 μM Compound 1. Combination activity was defined as a percentage of the area under the chemotherapy dose response curve (cAUC) for Compound 1 combination groups compared to the cAUC of chemotherapy alone.
(§2) The clonogenic assay was carried out in a 96 well plate format using ultra low attachment plates. For each test, plates were prepared as follows: each test well contained a layer of semi-solid medium with tumor cells (50 μL), and a second layer of medium supernatant with or without test compound (100 μL). The cell layer consisted of […] to 12.5×10^3 tumor cells per well, which were seeded in 50 μL/well cell culture medium (IMDM, supplemented with 20% (v/v) fetal bovine serum, 50 μg/mL gentamicin, and 0.4% (w/v) agar). After 24 hours, the soft-agar layer was covered with 90 μL of the same culture medium without agar, and 10 μL of control medium or test compound after serial dilution in DMSO for the duration of the experiment (continuous exposure, 100 μL drug overlay).
After 8 to 13 days in culture, colonies were stained, imaged, and counted.

[2] = Plasma concentration of Compound 1 at the 400 mg dose; type: in vivo; conditions: 400 mg dose in human
[3] = system: LXFA644 organoid, NSCLC (adenocarcinoma subtype); experiment: 3D clonogenic assay in patient derived organoids; type: cell-based, human; conditions: 8 to 13 days
Procedure: as §1
(§3) For combination experiments, working stock solutions of all compounds were prepared in DMSO at concentrations of 660-fold the highest test concentration used and stored at −20° C. Platin compounds were prepared freshly on each treatment day. On each day of an experiment, an aliquot of the working stock solutions was used and stored at room temperature prior to and during treatment. First, 1:2 dilutions of 660-fold concentrated working stocks were prepared in DMSO (in case of monotherapy controls), or equal amounts of the compound working stocks were mixed (in case of drug combinations). Then, different dilutions of these 330-fold concentrated solutions were prepared in DMSO to give an 8×2 matrix combination layout with conditions. The DMSO dilutions were further diluted […] into cell culture medium (IMDM, supplemented with 20% (v/v) fetal bovine serum, and 50 μg/mL gentamicin) in an intermediate dilution plate. Finally, 10 μL taken from the intermediate dilution plate were transferred to 140 μL of cells and medium per well of the final assay plate. Thus, the DMSO dilutions used for the mono- and the combination-treatment were diluted 1:660, and the DMSO concentration in the assay was […].
(§4) Tumors were passaged as subcutaneous xenografts in NMRI nu/nu mice. At a tumor volume of 400 to 1000 mm^3, tumor-bearing mice were euthanized, and tumors were collected under sterile conditions without delay. Tumors were mechanically disaggregated and subsequently incubated with an enzyme cocktail consisting of collagenase type IV (41 U/mL), DNase I (125 U/mL), hyaluronidase type III (100 U/mL), and dispase II (1 U/mL) in RPMI 1640 medium at 37° C. for 60 to 120 minutes. Cells were passed through sieves of 100 μm and 40 μm mesh size, and washed with RPMI 1640 medium. The percentage of viable cells was determined in a Neubauer-hemocytometer using trypan blue exclusion. Aliquots of the cells were frozen down and stored in liquid nitrogen vapor phase. On each day of an experiment, a frozen aliquot of tumor cells was thawed and used for preparation of assay plates.
as §2

[4] = system: LXFE690 organoid, NSCLC (squamous subtype); experiment: 3D clonogenic assay in patient derived organoids; type: cell-based, human; conditions: 8 to 13 days
Procedure: as §1, §3, §4, §2

[5] = system: MAXFTN2990 organoid, breast cancer (triple negative); experiment: 3D clonogenic assay in patient derived organoids; type: cell-based, human; conditions: 8 to 13 days
Procedure: as §1, §3, §4, §2

[6] = system: MAXFTN449 organoid, breast cancer (triple negative); experiment: 3D clonogenic assay in patient derived organoids; type: cell-based, human; conditions: 8 to 13 days
Procedure: as §1, §3, §4, §2

[7] = system: CXF2129 organoid, colon cancer; experiment: 3D clonogenic assay in patient derived organoids; type: cell-based, human; conditions: 8 to 13 days
Procedure: as §1, §3, §4, §2

[8] = system: PAXF2131 organoid, Pancreatic cancer; experiment: 3D clonogenic assay in patient derived organoids; type: cell-based, human; conditions: 8 to 13 days
Procedure: as §1, §3, §4, §2

[9] = system: LXFA677 organoid, NSCLC (adenocarcinoma subtype); experiment: 3D clonogenic assay in patient derived organoids; type: cell-based, human; conditions: 8 to 13 days
Procedure: as §1, §3, §4, §2

[10] = system: CXF1256 organoid, colon cancer; experiment: 3D clonogenic assay in patient derived organoids; type: cell-based, human; conditions: 8 to 13 days
Procedure: as §1, §3, §4, §2

[11] = system: LXFE2478 organoid, NSCLC (squamous subtype); experiment: 3D clonogenic assay in patient derived organoids; type: cell-based, human; conditions: 8 to 13 days
Procedure: as §1, §3, §4, §2

[12] = system: CXF2061 organoid, colon cancer; experiment: 3D clonogenic assay in patient derived organoids; type: cell-based, human; conditions: 8 to 13 days
Procedure: as §1, §3, §4, §2

[13] = system: PAXF1657 organoid, pancreatic cancer; experiment: 3D clonogenic assay in patient derived organoids; type: cell-based, human; conditions: 8 to 13 days
Procedure: as §1, §3, §4, §2

SMILES: C[C@@H]1CC[C@@H](Nc2nc(NC(C)(C)C)ncc2C(N)=O)C[C@H]1O [Compound 1, 2-(tert-butylamino)-4-((1R,3R,4R)-3-hydroxy-4-methylcyclohexylamino)-pyrimidine-5-carboxamide]
- organoid cultures with an average percent colony reduction greater than 20% ([1]; 5 μM Compound 1): 8 out of 11
- median percent colony reduction relative to DMSO ([1]; 5 μM Compound 1): 39%
- organoid cultures with an average percent colony reduction greater than 20% ([1]; 20 μM Compound 1): 10 out of 11
- median percent colony reduction relative to DMSO ([1]; 20 μM Compound 1): 34%
- plasma concentration at Cavg [2]: 4 µM
- Cmax ([2]; plasma): 14 µM
- % Reduction in Colony Formation with Compound 1 compared with DMSO, Mean ([3]; Compound 1, 5 μM): 12%
- % Reduction in Colony Formation with Compound 1 compared with DMSO, Mean ([3]; Compound 1, 20 μM): 24%
- % Reduction in Colony Formation with Compound 1 compared with DMSO, Mean ([4]; Compound 1, 5 μM): 73%
- % Reduction in Colony Formation with Compound 1 compared with DMSO, Mean ([4]; Compound 1, 20 μM): 79%
- % Reduction in Colony Formation with Compound 1 compared with DMSO, Mean ([5]; Compound 1, 5 μM): −8%
- % Reduction in Colony Formation with Compound 1 compared with DMSO, Mean ([5]; Compound 1, 20 μM): 34%
- % Reduction in Colony Formation with Compound 1 compared with DMSO, Mean ([6]; Compound 1, 5 μM): 56%
- % Reduction in Colony Formation with Compound 1 compared with DMSO, Mean ([6]; Compound 1, 20 μM): 54%
- % Reduction in Colony Formation with Compound 1 compared with DMSO, Mean ([7]; Compound 1, 5 μM): 56%
- % Reduction in Colony Formation with Compound 1 compared with DMSO, Mean ([7]; Compound 1, 20 μM): 49%
- % Reduction in Colony Formation with Compound 1 compared with DMSO, Mean ([8]; Compound 1, 5 μM): 62%
- % Reduction in Colony Formation with Compound 1 compared with DMSO, Mean ([8]; Compound 1, 20 μM): 68%
- % Reduction in Colony Formation with Compound 1 compared with DMSO, Mean ([9]; Compound 1, 5 μM): 27%
- % Reduction in Colony Formation with Compound 1 compared with DMSO, Mean ([9]; Compound 1, 20 μM): 32%
- % Reduction in Colony Formation with Compound 1 compared with DMSO, Mean ([10]; Compound 1, 5 μM): 90%
- % Reduction in Colony Formation with Compound 1 compared with DMSO, Mean ([10]; Compound 1, 20 μM): 92%
- % Reduction in Colony Formation with Compound 1 compared with DMSO, Mean ([11]; Compound 1, 5 μM): 39%
- % Reduction in Colony Formation with Compound 1 compared with DMSO, Mean ([11]; Compound 1, 20 μM): 28%
- % Reduction in Colony Formation with Compound 1 compared with DMSO, Mean ([12]; Compound 1, 5 μM): 8%
- % Reduction in Colony Formation with Compound 1 compared with DMSO, Mean ([12]; Compound 1, 20 μM): 9%
- % Reduction in Colony Formation with Compound 1 compared with DMSO, Mean ([13]; Compound 1, 5 μM): 31%
- % Reduction in Colony Formation with Compound 1 compared with DMSO, Mean ([13]; Compound 1, 20 μM): 27%
